Data taken from PubChem BioAssay (NCI).
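In this assay, cells in 96-well plates receive the compound at five concentrations for 48 hours. Endpoints are linearly interpolated between the surrounding concentrations. GI50 is the concentration that inhibits growth by half. Definition used: TGI = concentration required for complete inhibition of growth.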

Assays:
Assay in all cases: inhibition of tumour cell growth, NCI panel, 48 h
A549 NSCLC = test system: A549 NSCLC
HCC-2998 colon = test system: HCC-2998 colon
NCI-H226 lung = test system: NCI-H226 lung
NCI-H23 lung = test system: NCI-H23 lung
NCI-H460 lung = test system: NCI-H460 lung
OVCAR-8 ovarian = test system: OVCAR-8 ovarian
SK-MEL-28 melanoma = test system: SK-MEL-28 melanoma
SR leukemia = test system: SR leukemia
UACC-257 melanoma = test system: UACC-257 melanoma
CAKI-1 renal = test system: CAKI-1 renal

Row | SMILES | GI50 (A549 NSCLC) [µM] | TGI (A549 NSCLC) [µM] | GI50 (HCC-2998 colon) [µM] | TGI (HCC-2998 colon) [µM] | GI50 (NCI-H226 lung) [µM] | TGI (NCI-H226 lung) [µM] | GI50 (NCI-H23 lung) [µM] | TGI (NCI-H23 lung) [µM] | GI50 (NCI-H460 lung) [µM] | TGI (NCI-H460 lung) [µM] | GI50 (OVCAR-8 ovarian) [µM] | TGI (OVCAR-8 ovarian) [µM] | GI50 (SK-MEL-28 melanoma) [µM] | TGI (SK-MEL-28 melanoma) [µM] | GI50 (SR leukemia) [µM] | TGI (SR leukemia) [µM] | GI50 (UACC-257 melanoma) [µM] | TGI (UACC-257 melanoma) [µM] | TGI (CAKI-1 renal) [µM] | GI50 (CAKI-1 renal) [µM]
1 | COc1ccc(N(C)c2nc(Cl)nc3ccn(C)c23)cc1 | < 0.01 | > 100 | < 0.01 | > 100 | > 100 | > 100 | < 0.01 | > 100 | < 0.01 | > 100 | < 0.01 | > 100 | 5 | > 100 | < 0.01 | > 100 | > 100 | > 100 |  | 
2 | N#CCC12CC=CCC1=C(O)C(=O)c1ccc(O)cc12 (centres undefined) |  | > 100 |  | > 100 |  | > 100 |  | > 100 |  | > 100 |  | > 100 |  | > 100 |  | > 100 |  | > 100 | > 100 | 
3 | CC(C)(C)c1cn2cccc(C(=O)N3CCN(CC(=O)Nc4ccc(Cl)cc4C(=O)c4ccccc4Cl)CC3)c2n1 | 2.64 | 23.3 | 10.3 | 75.1 | 11.3 | 37 | 18.8 | > 100 | 5.79 | 23 | 6.84 | 77.4 | 11 | 28.8 | > 100 | > 100 | 3.51 | 23.5 | 14.2 | 3.31
4 | NC(N)=N/N=C(/c1ccccc1)c1ccc(Cl)cc1 | 15.5 | > 100 | 16.3 | 47.5 | 29.3 | > 100 | 34 | > 100 | 9.93 | 44 | 36.4 | > 100 | 8.03 | > 100 | 3.94 | > 100 | > 100 | > 100 | > 100 | 13.9
5 | COc1cc(Nc2ncc3c(C)nc(-c4cccc(Oc5ccccc5)c4)n3n2)cc(OC)c1OC | 6.32 | > 25 | 5.15 | > 25 | 5.93 | > 25 | 6.68 | > 25 | 3.21 | > 25 | 5.15 | > 25 | 7.63 | > 25 | 5.99 | > 21.4 | 10.4 | > 25 | > 25 | 1.24
6 | CNc1cccnc1/C=N/NC(N)=S |  | 9.91 |  | > 10 |  | > 10 |  | > 6.65 |  | > 10 |  | > 10 |  | > 10 |  | > 10 |  | > 10 | > 10 | 
7 | C=CCC12CC(=O)C=C1CCC1(C2)OCCO1 (centres undefined) |  | > 100 |  | > 100 |  | > 100 |  |  |  | > 100 |  |  |  | > 100 |  | > 100 |  | > 100 | > 100 | 
8 | O=C1Nc2ccccc2/C1=C/c1cn(C(=O)c2c(Cl)cccc2Cl)c2ccccc12 | 3.23 | 17.6 | 6.03 | 19.6 | 7.48 | 27 | 4.08 | 17.3 | 2 | 3.97 | 4.12 | 37.4 |  |  | 2.25 | 8.13 | 5 | 24.8 | 5.77 | 1.89
